Results as given in patent publication US20200002670A1, “Generation of Endocrine Progenitor Cells from Human Pluripotent Stem Cells Using Small Molecules” (Novo Nordisk A/S, priority 2013, published 2020).

Legend:
Format in all cases: cell-based, human
[1] = test system: pancreatic endoderm cells; experiment: NGN3/NKX2.2 double positive cells by immunostaining and InCell imaging after PE to EP differentiation
Experimental: After three days of EP differentiation, at EP day 4, media were aspirated followed by fixation of the cells at room temperature for 30 min with 4% paraformaldehyde (VWR, 97.131.000). Cells were washed with PBS and permeabilized with 0.5% Triton X-100 (Sigma, 9002-93-1) for 10 min, washed and blocked in 0.5% TNB-buffer (Perkin Elmer) for 30 min at room temperature. Primary antibodies, sheep anti-NGN3 (R&D systems #AF3444) and rabbit anti-NKX2.2 (Sigma #HPA003468) were diluted 1:1000 and 1:500, respectively, in 0.1% Triton X-100 in PBS and added to each well for overnight incubation at 4° C. Cells were washed three times with PBS. DAPI (4′,6-diamidino-2-phenylindole, Applichem, A4099.0010) and secondary antibodies, Alexa Fluor 488 donkey anti-goat and Alexa Fluor 594 donkey anti-rabbit (both Invitrogen) were diluted 1:1000 in 0.1% Triton X-100 in PBS and added to each well for 45 min. Cells were washed five times and left in 200 μL PBS for imaging. Imaging was performed using the InCell Analyzer 2000 (GE Healthcare). 4 fields per well with 10× objective were captured. The total cell number based in the DAPI counterstaining and the number of NGN3/NKX2.2 double positive cells was determined using InCell Developer Toolbox 1.8 (GE Healthcare). The fraction of NGN3/NKX2.2 double positive cells were quantified using the InCell developer toolbox software (GE Healthcare) and normalized to the combined protocol K&N (example 2) on each plate and the % effect was calculated (% effect NGN3/NKX2.2 double positive=((S−Sneg)/(|Spos−Sneg|))*100). Wherein S is % NGN3/NKX2.2 double positive cells for a given compound combination, Sneg and Spos are % NGN3/NKX2.2 double positive cells for the negative control and combined protocol K&N, respectively).
An EP cell population was prepared according to examples 1 and 2. However, in addition to the reagents used in example 2 the small molecules listed in table 3 were added for three days at concentrations specified in table 3 below in concentrations as shown. After three days of EP differentiation media were aspirated followed by fixation of the cells at room temperature for 30 min with 4% paraformaldehyde (VWR, 97.131.000). Cells were washed with PBS and permeabilized with 0.5% Triton X-100 (Sigma, 9002-93-1) for 10 min, washed and blocked in 0.5% TNB-buffer (Perkin Elmer) for 30 min at room temperature. Primary antibodies, sheep anti-NGN3 (R&D systems #AF3444) and rabbit anti-NKX2.2 (Sigma #HPA003468) were diluted 1:1000 and 1:500, respectively, in 0.1% Triton X-100 in PBS and added to each well for overnight incubation at 4° C. Cells were washed three times with PBS. DAPI (4′,6-diamidino-2-phenylindole, Applichem, A4099.0010) and secondary antibodies, Alexa Fluor 488 donkey anti-goat and Alexa Fluor 594 donkey anti-rabbit (both Invitrogen) were diluted 1:1000 in 0.1% Triton X-100 in PBS and added to each well for 45 min. Cells were washed five times and left in 200 μL PBS for imaging.
Imaging was performed using the InCell Analyzer 2000 (GE Healthcare). 4 fields per well with 10× objective were captured. The total cell number based in the DAPI counterstaining and the number of NGN3/NKX2,2 double positive cells was determined using InCell Developer Toolbox 1.8 (GE Healthcare). The fraction of NGN3/NKX2.2 double positive cells were quantified using the InCell developer toolbox software (GE Healthcare) and normalized to the combined protocol K&N on each plate and the % effect was calculated (% effect NGN3/NKX2.2 double positive=((S−Sneg)/(|Spos−Sneg|))*100). Wherein S is % NGN3/NKX2.2 double positive cells for a given compound combination, Sneg and Spos are % NGN3/NKX2.2 double positive cells for the negative control and combined protocol K&N, respectively).

[2] = test system: SA121 (hES) derived pancreatic endoderm cells; experiment: NGN3/NKX2.2 double positive cells by imaging, small molecule combinations, SA121 (hES); conditions: Method of example 2 + 2.5 μM DAPT
Experimental: (§1) An EP cell population was prepared according to example 2. However, in addition to the reagents used in example 2, certain small molecules listed in table 3 were added either alone or in combination during the three days of EP differentiation. After three days of EP differentiation media were aspirated followed by fixation of the cells at room temperature for 30 min with 4% paraformaldehyde (VWR, 97.131.000). Cells were washed with PBS and permeabilized with 0.5% Triton X-100 (Sigma, 9002-93-1) for 10 min, washed and blocked in 0.5% TNB-buffer (Perkin Elmer) for 30 min at room temperature. […] Cells were washed three times with PBS. DAPI (4',6-diamidino-2-phenylindole, Applichem, […]10) and secondary antibodies, Alexa Fluor 488 donkey anti-goat and Alexa Fluor 594 donkey anti-rabbit (both Invitrogen) were diluted 1:1000 in 0.1% Triton X-100 in PBS and added to each well for 45 min. Cells were washed five times and left in 200 μL PBS for imaging. Imaging was performed using the InCell Analyzer 2000 (GE Healthcare). 4 fields per well with 10× objective were captured.

[3] = test system: CHiPS2 (iPS) derived pancreatic endoderm cells; experiment: NGN3/NKX2.2 double positive cells by imaging, small molecule combinations, CHiPS2 (iPS); conditions: Method of example 2 + 2.5 μM DAPT
Experimental: as §1

[4] = 10 μM added to method of example 2 for three days
[5] = 0.5 μM added to method of example 2 for three days
[6] = 5 μM added to method of example 2 for three days
[7] = 0.1 μM added to method of example 2 for three days
[8] = 1 μM added to method of example 2 for three days

## Cn1cnc2cc3c(Nc4cccc(Br)c4)ncnc3cc21 [BPIQ-I]
[1]; [4]
  % effect NGN3/NKX2.2 double positive cells: 350%

## C[C@H](NC(=O)Cc1cc(F)cc(F)c1)C(=O)N[C@@H]1C(=O)N(C)c2ccccc2-c2ccccc21 [CompE]
[1]; 5 nM added to method of example 2 for three days
  % effect NGN3/NKX2.2 double positive cells: 250%
[1]; 50 nM added to method of example 2 for three days
  % effect NGN3/NKX2.2 double positive cells: 325%
[1]; 500 nM added to method of example 2 for three days
  % effect NGN3/NKX2.2 double positive cells: 395%

## C[C@H](NC(=O)Cc1cc(F)cc(F)c1)C(=O)N[C@H](C(=O)OC(C)(C)C)c1ccccc1 [DAPT]
[2]
  % effect NGN3/NKX2.2 double positive cells, SA121 (hES): 165%
[3]
  % effect NGN3/NKX2.2 double positive cells, CHiPS2 (iPS): 167%
[1]; [5]
  % effect NGN3/NKX2.2 double positive cells: 150%
[1]; 2.5 μM added to method of example 2 for three days
  % effect NGN3/NKX2.2 double positive cells: 350%
[1]; 25 μM added to method of example 2 for three days
  % effect NGN3/NKX2.2 double positive cells: 300%

## CN(C)c1ccc(/C=C2/C(=O)Nc3ccccc32)cc1 [DMBI, (Z)-3-[4-(Dimethylamino)benzylidenyl]indolin-2-one]
[1]; [6]
  % effect NGN3/NKX2.2 double positive cells: 167%
[1]; [4]
  % effect NGN3/NKX2.2 double positive cells: 231%

## O=C(c1ccccc1)c1ccc(N2CCOCC2)cc1O [DNA-PK inhibitor V]
[1]; [6]
  % effect NGN3/NKX2.2 double positive cells: 370%

## COc1cc2ncnc(Nc3ccc(F)c(Cl)c3)c2cc1OCCCN1CCOCC1 [Gefitinib]
[1]; [7]
  % effect NGN3/NKX2.2 double positive cells: 222%
[1]; [8]
  % effect NGN3/NKX2.2 double positive cells: 311%
[1]; [6]
  % effect NGN3/NKX2.2 double positive cells: 325%

## CCOc1nc(NC(=O)Cc2cc(OC)ccc2OC)cc(N)c1C#N [JNK VIII]
[1]; [7]
  % effect NGN3/NKX2.2 double positive cells: 160%
[1]; [5]
  % effect NGN3/NKX2.2 double positive cells: 156%
[1]; [8]
  % effect NGN3/NKX2.2 double positive cells: 204%
[1]; [6]
  % effect NGN3/NKX2.2 double positive cells: 315%
[1]; [4]
  % effect NGN3/NKX2.2 double positive cells: 308%

## CC(C)CC(NC(=O)C(Cc1ccccc1)CC(O)C(Cc1ccccc1)NC(=O)OC(C)(C)C)C(=O)NC(Cc1ccccc1)C(N)=O (stereo not shown) [L6]
[1]; 50 μM added to method of example 2 for three days
  % effect NGN3/NKX2.2 double positive cells: 150%

## COc1cccc(-c2cc(=O)c3ccccc3o2)c1N [PD98059]
[1]; [8]
  % effect NGN3/NKX2.2 double positive cells: 165%

## CCC(=O)Nc1ccc2ncnc(Nc3cccc(Br)c3)c2c1 [PD174265]
[1]; [8]
  % effect NGN3/NKX2.2 double positive cells: 240%
[1]; [6]
  % effect NGN3/NKX2.2 double positive cells: 374%
[1]; [4]
  % effect NGN3/NKX2.2 double positive cells: 274%

## c1ccc2c(-c3ccncc3)c[nH]c2c1 [Rockout]
[1]; [6]
  % effect NGN3/NKX2.2 double positive cells: 208%
[1]; [4]
  % effect NGN3/NKX2.2 double positive cells: 199%

## Cn1cc(/C=C2\C(=O)Nc3ccc(S(N)(=O)=O)cc32)c2ccccc21 [Syk inhibitor]
[1]; [8]
  % effect NGN3/NKX2.2 double positive cells: 157%

## Cc1cccc(-c2nc(C(C)(C)C)[nH]c2-c2ccc3c(c2)OCO3)n1.Cl [TGFbRI inhibitor III]
[1]; [6]
  % effect NGN3/NKX2.2 double positive cells: 182%

## CSc1nc(-c2ccc(F)cc2)c(-c2ccnc(NC(C)c3ccccc3)c2)[nH]1 (stereo not shown) [p38 inhibitor III]
[1]; [6]
  % effect NGN3/NKX2.2 double positive cells: 191%
[1]; [4]
  % effect NGN3/NKX2.2 double positive cells: 153%
